Values quoted from earlier work, collected in patent US11202786B2, “Synthetic bile acid compositions and methods” (ALLERGAN SALES, LLC, priority 2007, dated 2021).

Tests used:
[1] = neutral pH
albumin = albumin (Homo sapiens, UniProt P02768); settings: 0.4 mg/mL deoxycholate (comparable to the fasting state), in the presence of 26 mg/mL of albumin
Chain of albumin (P02768 25-609): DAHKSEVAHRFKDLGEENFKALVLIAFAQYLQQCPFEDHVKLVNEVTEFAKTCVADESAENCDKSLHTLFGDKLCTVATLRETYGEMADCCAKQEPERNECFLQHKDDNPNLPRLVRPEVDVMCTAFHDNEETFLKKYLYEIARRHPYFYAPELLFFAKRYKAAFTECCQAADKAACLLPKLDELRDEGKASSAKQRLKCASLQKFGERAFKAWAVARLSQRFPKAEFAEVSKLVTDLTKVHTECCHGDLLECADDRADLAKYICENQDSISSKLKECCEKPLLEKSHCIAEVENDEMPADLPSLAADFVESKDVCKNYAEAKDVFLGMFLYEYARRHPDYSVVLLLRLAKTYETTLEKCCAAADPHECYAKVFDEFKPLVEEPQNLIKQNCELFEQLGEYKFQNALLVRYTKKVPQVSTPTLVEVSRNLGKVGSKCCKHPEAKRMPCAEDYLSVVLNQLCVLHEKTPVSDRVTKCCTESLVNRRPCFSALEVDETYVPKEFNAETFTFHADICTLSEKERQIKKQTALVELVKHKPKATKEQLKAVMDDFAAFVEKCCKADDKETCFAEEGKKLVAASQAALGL

For `C[C@H](CCC(=O)[O-])[C@H]1CC[C@H]2[C@@H]3CC[C@@H]4C[C@H](O)CC[C@]4(C)[C@H]3C[C@H](O)[C@]12C.[Na+]` [Deoxycholate, sodium deoxycholate], the critical micelle concentration [1] is given as “approximately 2.4 mg/mL”, the solubility in acetone (acetone, compared with alcohol) is given as “even less soluble” and the soluble in water (water) is given as 333 mg/mL. For the same molecule, the bound to albumin (albumin) was 98%.
